Measurements reported in the NIST ThermoML archive (doi:10.1021/je050050p).

Assay: xn = mol fraction of the nth substance listed
Conditions: Liquid, Vibrating tube method

CN(C)C=O [dimethylformamide] + O=C=O
Conditions	mass density [kg/m3]
323.07 K, 21005 kPa, x2 = 0.6235	955.83
323.07 K, 22029 kPa, x2 = 0.6235	957.78
323.07 K, 23012 kPa, x2 = 0.6235	959.63
323.07 K, 24020 kPa, x2 = 0.6235	961.47
323.07 K, 24979 kPa, x2 = 0.6235	963.24
323.08 K, 11047 kPa, x2 = 0.8091	888.99
323.08 K, 12004 kPa, x2 = 0.8091	893.47
323.08 K, 13042 kPa, x2 = 0.8091	898.2
323.08 K, 14006 kPa, x2 = 0.8091	902.33
323.08 K, 15005 kPa, x2 = 0.8091	906.31
323.08 K, 16016 kPa, x2 = 0.8091	910.13
323.08 K, 16989 kPa, x2 = 0.8091	913.66
323.08 K, 18023 kPa, x2 = 0.8091	917.28
323.08 K, 18997 kPa, x2 = 0.8091	920.57
323.08 K, 20018 kPa, x2 = 0.8091	923.89
323.08 K, 21002 kPa, x2 = 0.8091	927.01
323.08 K, 22041 kPa, x2 = 0.8091	930.23
323.08 K, 22980 kPa, x2 = 0.8091	933.13
323.08 K, 23989 kPa, x2 = 0.8091	936
323.08 K, 25049 kPa, x2 = 0.8091	939.12
323.09 K, 7005 kPa, x2 = 0.4268	942.62
323.09 K, 7062 kPa, x2 = 0.4461	942.94
323.09 K, 7958 kPa, x2 = 0.4461	944.11
323.09 K, 8007 kPa, x2 = 0.4268	943.86
323.09 K, 9005 kPa, x2 = 0.4268	944.97
323.09 K, 9022 kPa, x2 = 0.4461	945.39
323.09 K, 9996 kPa, x2 = 0.4268	946.2
323.09 K, 9998 kPa, x2 = 0.4461	946.6
323.09 K, 11005 kPa, x2 = 0.4461	947.83
323.09 K, 11020 kPa, x2 = 0.4268	947.43
323.09 K, 12000 kPa, x2 = 0.4268	948.52
323.09 K, 12017 kPa, x2 = 0.9311	797.65
323.09 K, 12039 kPa, x2 = 0.4461	949.09
323.09 K, 13002 kPa, x2 = 0.4461	950.23
323.09 K, 13010 kPa, x2 = 0.9311	810.33
323.09 K, 13035 kPa, x2 = 0.4268	949.74
323.09 K, 14007 kPa, x2 = 0.4268	950.83
323.09 K, 14007 kPa, x2 = 0.4461	951.42
323.09 K, 14016 kPa, x2 = 0.9311	821.48
323.09 K, 14996 kPa, x2 = 0.4461	952.54
323.09 K, 15005 kPa, x2 = 0.9311	831.25
323.09 K, 15007 kPa, x2 = 0.4268	951.95
323.09 K, 15987 kPa, x2 = 0.4268	952.99
323.09 K, 16001 kPa, x2 = 0.4461	953.67
323.09 K, 16036 kPa, x2 = 0.9311	840.41
323.09 K, 16984 kPa, x2 = 0.4268	954.11
323.09 K, 17004 kPa, x2 = 0.4461	954.83
323.09 K, 17025 kPa, x2 = 0.9311	848.46
323.09 K, 17998 kPa, x2 = 0.4268	955.17
323.09 K, 18000 kPa, x2 = 0.4461	955.98
323.09 K, 18021 kPa, x2 = 0.9311	855.96
323.09 K, 18994 kPa, x2 = 0.4461	957.05
323.09 K, 19034 kPa, x2 = 0.9311	863.06
323.09 K, 19040 kPa, x2 = 0.4268	956.31
323.09 K, 20010 kPa, x2 = 0.9311	869.5
323.09 K, 20031 kPa, x2 = 0.4461	958.19
323.09 K, 20050 kPa, x2 = 0.4268	957.38
323.09 K, 21020 kPa, x2 = 0.4461	959.24
323.09 K, 21029 kPa, x2 = 0.9311	875.82
323.09 K, 21048 kPa, x2 = 0.4268	958.44
323.09 K, 22009 kPa, x2 = 0.9311	881.6
323.09 K, 22029 kPa, x2 = 0.4461	960.34
323.09 K, 22041 kPa, x2 = 0.4268	959.46
323.09 K, 23008 kPa, x2 = 0.4461	961.38
323.09 K, 23037 kPa, x2 = 0.4268	960.49
323.09 K, 23050 kPa, x2 = 0.9311	887.36
323.09 K, 23995 kPa, x2 = 0.9311	892.39
323.09 K, 24019 kPa, x2 = 0.4461	962.44
323.09 K, 24061 kPa, x2 = 0.4268	961.52
323.09 K, 25007 kPa, x2 = 0.4461	963.48
323.09 K, 25036 kPa, x2 = 0.4268	962.52
323.09 K, 25056 kPa, x2 = 0.9311	897.78
323.1 K, 7005 kPa, x2 = 0.4502	942.87
323.1 K, 7058 kPa, x2 = 0.4068	942.59
323.1 K, 8007 kPa, x2 = 0.4068	943.65
323.1 K, 8009 kPa, x2 = 0.4502	944.1
323.1 K, 9003 kPa, x2 = 0.4502	945.32
323.1 K, 9034 kPa, x2 = 0.4068	944.82
323.1 K, 10001 kPa, x2 = 0.4068	945.91
323.1 K, 10005 kPa, x2 = 0.4502	946.57
323.1 K, 11002 kPa, x2 = 0.4502	947.78
323.1 K, 11013 kPa, x2 = 0.4068	947.04
323.1 K, 12000 kPa, x2 = 0.4068	948.11
323.1 K, 12012 kPa, x2 = 0.4502	948.99
323.1 K, 12998 kPa, x2 = 0.4068	949.23
323.1 K, 13022 kPa, x2 = 0.4502	950.22
323.1 K, 13979 kPa, x2 = 0.4068	950.27
323.1 K, 14010 kPa, x2 = 0.4502	951.35
323.1 K, 15004 kPa, x2 = 0.4068	951.37
323.1 K, 15007 kPa, x2 = 0.4502	952.52
323.1 K, 16001 kPa, x2 = 0.4068	952.41
323.1 K, 16010 kPa, x2 = 0.4502	953.67
323.1 K, 16989 kPa, x2 = 0.4068	953.45
323.1 K, 17008 kPa, x2 = 0.4502	954.76
323.1 K, 18013 kPa, x2 = 0.4502	955.9
323.1 K, 18017 kPa, x2 = 0.4068	954.51
323.1 K, 18998 kPa, x2 = 0.4068	955.51
323.1 K, 19001 kPa, x2 = 0.4502	956.99
323.1 K, 19996 kPa, x2 = 0.4502	958.07
323.1 K, 20005 kPa, x2 = 0.4068	956.52
323.1 K, 20986 kPa, x2 = 0.4068	957.5
323.1 K, 21010 kPa, x2 = 0.4502	959.2
323.1 K, 22004 kPa, x2 = 0.4502	960.27
323.1 K, 22021 kPa, x2 = 0.4068	958.56
323.1 K, 22997 kPa, x2 = 0.4502	961.32
323.1 K, 22998 kPa, x2 = 0.4068	959.49
323.1 K, 23987 kPa, x2 = 0.4068	960.47
323.1 K, 23995 kPa, x2 = 0.4502	962.39
323.1 K, 25019 kPa, x2 = 0.4502	963.43
323.1 K, 25057 kPa, x2 = 0.4068	961.5
323.15 K, 5022 kPa, x2 = 0.2876	937.32
323.15 K, 6019 kPa, x2 = 0.2876	938.29
323.15 K, 7007 kPa, x2 = 0.2876	939.23
323.15 K, 8008 kPa, x2 = 0.2876	940.16
323.15 K, 9023 kPa, x2 = 0.2876	941.14
323.15 K, 10001 kPa, x2 = 0.2876	942.04
323.15 K, 11006 kPa, x2 = 0.2876	942.98
323.15 K, 12003 kPa, x2 = 0.2876	943.9
323.15 K, 13004 kPa, x2 = 0.2876	944.81
323.15 K, 14005 kPa, x2 = 0.2876	945.73
323.15 K, 14999 kPa, x2 = 0.2876	946.61
323.15 K, 15994 kPa, x2 = 0.2876	947.48
323.15 K, 17022 kPa, x2 = 0.2876	948.41
323.15 K, 17996 kPa, x2 = 0.2876	949.25
323.15 K, 19004 kPa, x2 = 0.2876	950.13
323.15 K, 20021 kPa, x2 = 0.2876	950.99
323.15 K, 21018 kPa, x2 = 0.2876	951.84
323.15 K, 22030 kPa, x2 = 0.2876	952.68
323.15 K, 23007 kPa, x2 = 0.2876	953.51
323.15 K, 24019 kPa, x2 = 0.2876	954.35
323.15 K, 25012 kPa, x2 = 0.2876	955.16
332.96 K, 10005 kPa, x2 = 0.6235	907.82
332.96 K, 10991 kPa, x2 = 0.6235	910.93
332.96 K, 12056 kPa, x2 = 0.6235	913.98
332.96 K, 13000 kPa, x2 = 0.6235	916.59
332.96 K, 14042 kPa, x2 = 0.6235	919.37
332.96 K, 15010 kPa, x2 = 0.6235	921.91
332.96 K, 15997 kPa, x2 = 0.6235	924.4
332.96 K, 17030 kPa, x2 = 0.6235	926.91
332.96 K, 18038 kPa, x2 = 0.6235	929.31
332.96 K, 19028 kPa, x2 = 0.6235	931.63
332.96 K, 20027 kPa, x2 = 0.6235	933.85
332.96 K, 21009 kPa, x2 = 0.6235	936.05
332.96 K, 22009 kPa, x2 = 0.6235	938.17
332.96 K, 23042 kPa, x2 = 0.6235	940.35
332.96 K, 24041 kPa, x2 = 0.6235	942.44
332.96 K, 25008 kPa, x2 = 0.6235	944.38
332.97 K, 13046 kPa, x2 = 0.8091	858.28
332.97 K, 14016 kPa, x2 = 0.8091	863.75
332.97 K, 15002 kPa, x2 = 0.8091	869.06
332.97 K, 16027 kPa, x2 = 0.8091	874.28
332.97 K, 17017 kPa, x2 = 0.8091	879.06
332.97 K, 18042 kPa, x2 = 0.8091	883.74
332.97 K, 19003 kPa, x2 = 0.8091	887.97
332.97 K, 20021 kPa, x2 = 0.8091	892.23
332.97 K, 21029 kPa, x2 = 0.8091	896.31
332.97 K, 22019 kPa, x2 = 0.8091	900.16
332.97 K, 23004 kPa, x2 = 0.8091	903.83
332.97 K, 24041 kPa, x2 = 0.8091	907.6
332.97 K, 24998 kPa, x2 = 0.8091	910.97
332.98 K, 8015 kPa, x2 = 0.4268	929.54
332.98 K, 9023 kPa, x2 = 0.4268	930.86
332.98 K, 9996 kPa, x2 = 0.4268	932.09
332.98 K, 11004 kPa, x2 = 0.4268	933.37
332.98 K, 12004 kPa, x2 = 0.4268	934.65
332.98 K, 13005 kPa, x2 = 0.4268	935.88
332.98 K, 13019 kPa, x2 = 0.9311	744.38
